Columns and labels:
[1] = biological target: T1, E. coli respiratory complex I (NADH:ubiquinone oxidoreductase) (Escherichia coli, UniProt P31979); experiment: NADH:ferricyanide oxidoreductase assay, NADH oxidation at […] nm, Lineweaver-Burk secondary plots; type: biochemical; settings: reaction started by enzyme (oxidised enzyme); ferricyanide 0.25-2 mM; pH 6.0, 30 °C; ping-pong-pong with double substrate inhibition; read-out: Km, app. ^NADH
T1 construct: gene nuoF; whole complex from the nuo operon, His-tagged NuoF, overproduced in E. coli, DDM-solubilised, purified by anion exchange, Ni-IDA and Source Q; with NADH-quinone oxidoreductase subunit E; NADH-quinone oxidoreductase subunit G; NADH-quinone oxidoreductase subunit C/D; NADH-quinone oxidoreductase subunit B; NADH-quinone oxidoreductase subunit I; NADH-quinone oxidoreductase subunit A; NADH-quinone oxidoreductase subunit H; NADH-quinone oxidoreductase subunit J; NADH-quinone oxidoreductase subunit K; NADH-quinone oxidoreductase subunit L; NADH-quinone oxidoreductase subunit M; NADH-quinone oxidoreductase subunit N
T1 sequence (P0AFD1 whole entry V96P/N142M, form open, one chain of several): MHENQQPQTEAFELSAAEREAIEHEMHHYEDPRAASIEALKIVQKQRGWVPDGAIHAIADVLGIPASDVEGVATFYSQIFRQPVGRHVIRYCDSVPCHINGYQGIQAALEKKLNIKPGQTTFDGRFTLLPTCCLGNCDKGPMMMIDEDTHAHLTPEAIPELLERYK

[2] = biological target: T1, E. coli respiratory complex I (NADH:ubiquinone oxidoreductase); experiment: as above; type: biochemical; settings: reaction started by enzyme (oxidised enzyme), ferricyanide 0.25-2 mM, pH 6.0, 30 °C, ping-pong-pong with double substrate inhibition, competitive with ferricyanide at the reduced
[3] = biological target: T2, E. coli respiratory complex I (NADH:ubiquinone oxidoreductase) (Escherichia coli, UniProt P31979); experiment: as above; type: biochemical; settings: reaction started by enzyme (oxidised enzyme), ferricyanide 0.25-2 mM, pH 6.0, 30 °C, ping-pong-pong with double substrate inhibition, competitive with ferricyanide at the reduced; remark: listed apart in the source
T2 construct: gene nuoF; whole complex from the nuo operon, His-tagged NuoF, overproduced in E. coli, DDM-solubilised, purified by anion exchange, Ni-IDA and Source Q; with NADH-quinone oxidoreductase subunit E; NADH-quinone oxidoreductase subunit G; NADH-quinone oxidoreductase subunit C/D; NADH-quinone oxidoreductase subunit B; NADH-quinone oxidoreductase subunit I; NADH-quinone oxidoreductase subunit A; NADH-quinone oxidoreductase subunit H; NADH-quinone oxidoreductase subunit J; NADH-quinone oxidoreductase subunit K; NADH-quinone oxidoreductase subunit L; NADH-quinone oxidoreductase subunit M; NADH-quinone oxidoreductase subunit N
T2 sequence (P31979 1-445): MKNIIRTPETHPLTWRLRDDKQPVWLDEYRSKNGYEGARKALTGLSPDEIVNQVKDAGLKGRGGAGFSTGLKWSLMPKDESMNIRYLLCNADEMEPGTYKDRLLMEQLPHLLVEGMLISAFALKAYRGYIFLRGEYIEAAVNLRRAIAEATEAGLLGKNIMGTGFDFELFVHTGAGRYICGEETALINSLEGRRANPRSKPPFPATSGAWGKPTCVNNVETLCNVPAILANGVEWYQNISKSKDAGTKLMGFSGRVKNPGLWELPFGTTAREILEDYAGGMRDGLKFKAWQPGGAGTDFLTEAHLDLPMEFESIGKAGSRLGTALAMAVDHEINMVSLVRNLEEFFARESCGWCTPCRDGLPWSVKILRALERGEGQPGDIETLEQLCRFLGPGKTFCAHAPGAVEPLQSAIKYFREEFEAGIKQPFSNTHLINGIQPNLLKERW
T2 sequence (P0AFD1 1-166 partner): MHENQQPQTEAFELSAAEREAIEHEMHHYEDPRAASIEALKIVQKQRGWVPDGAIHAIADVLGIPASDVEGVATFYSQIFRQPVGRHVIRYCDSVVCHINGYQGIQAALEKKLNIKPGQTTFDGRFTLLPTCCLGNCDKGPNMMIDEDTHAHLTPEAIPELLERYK
T2 sequence (P33602 2-908 partner): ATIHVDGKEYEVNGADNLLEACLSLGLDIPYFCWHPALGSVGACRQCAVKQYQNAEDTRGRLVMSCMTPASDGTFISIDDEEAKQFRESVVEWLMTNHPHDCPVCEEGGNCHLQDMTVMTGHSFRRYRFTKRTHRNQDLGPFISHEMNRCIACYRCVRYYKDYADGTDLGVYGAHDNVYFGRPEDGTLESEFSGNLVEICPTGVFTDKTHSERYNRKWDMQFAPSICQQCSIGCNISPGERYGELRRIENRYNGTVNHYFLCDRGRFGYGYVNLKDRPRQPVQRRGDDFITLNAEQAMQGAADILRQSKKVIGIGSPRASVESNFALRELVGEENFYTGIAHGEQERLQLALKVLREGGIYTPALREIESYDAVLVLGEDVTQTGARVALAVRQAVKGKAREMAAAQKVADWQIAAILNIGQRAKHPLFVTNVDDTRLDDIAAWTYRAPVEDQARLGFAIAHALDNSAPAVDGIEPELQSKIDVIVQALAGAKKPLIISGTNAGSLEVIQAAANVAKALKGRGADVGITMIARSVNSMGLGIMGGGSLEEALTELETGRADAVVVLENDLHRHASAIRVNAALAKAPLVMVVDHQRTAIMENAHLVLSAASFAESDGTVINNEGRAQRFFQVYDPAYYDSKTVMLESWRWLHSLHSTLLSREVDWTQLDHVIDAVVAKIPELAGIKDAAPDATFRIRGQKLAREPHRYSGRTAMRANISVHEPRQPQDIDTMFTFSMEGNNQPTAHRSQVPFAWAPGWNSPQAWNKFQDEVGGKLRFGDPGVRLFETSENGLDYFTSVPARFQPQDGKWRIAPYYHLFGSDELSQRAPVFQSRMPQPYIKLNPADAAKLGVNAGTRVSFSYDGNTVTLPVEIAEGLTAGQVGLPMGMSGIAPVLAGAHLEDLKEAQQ

[4] = biological target: T2, E. coli respiratory complex I (NADH:ubiquinone oxidoreductase); experiment: as above; type: biochemical; settings: reaction started by enzyme (oxidised enzyme); pH 6.0, 30 °C; off-rate derived from steady-state kinetics, not a Kd
[5] = biological target: T1, E. coli respiratory complex I (NADH:ubiquinone oxidoreductase); experiment: as above; type: biochemical; settings: reaction started by enzyme (oxidised enzyme); pH 6.0, 30 °C; off-rate derived from steady-state kinetics, not a Kd; remark: listed apart in the source
[6] = biological target: T3, T. thermophilus complex I (Thermus thermophilus, UniProt Q56222); experiment: d-NADH:ferricyanide oxidoreductase activity of cytoplasmic membranes, […] nm; type: biochemical; settings: ferricyanide as acceptor; 50 mM Bis-Tris, pH 7.3 (Figure 1 legend), 60 °C
T3 construct: gene nqo1; native complex in isolated T. thermophilus cytoplasmic membranes; with NADH-quinone oxidoreductase subunit 2; NADH-quinone oxidoreductase subunit 3; NADH-quinone oxidoreductase subunit 4; NADH-quinone oxidoreductase subunit 5; NADH-quinone oxidoreductase subunit 6; NADH-quinone oxidoreductase subunit 7; NADH-quinone oxidoreductase subunit 8; NADH-quinone oxidoreductase subunit 9; NADH-quinone oxidoreductase subunit 10; NADH-quinone oxidoreductase subunit 11; NADH-quinone oxidoreductase subunit 12; NADH-quinone oxidoreductase subunit 13; NADH-quinone oxidoreductase subunit 14; NADH-quinone oxidoreductase subunit 15; NADH-quinone oxidoreductase subunit 16
T3 sequence (Q56222 1-438): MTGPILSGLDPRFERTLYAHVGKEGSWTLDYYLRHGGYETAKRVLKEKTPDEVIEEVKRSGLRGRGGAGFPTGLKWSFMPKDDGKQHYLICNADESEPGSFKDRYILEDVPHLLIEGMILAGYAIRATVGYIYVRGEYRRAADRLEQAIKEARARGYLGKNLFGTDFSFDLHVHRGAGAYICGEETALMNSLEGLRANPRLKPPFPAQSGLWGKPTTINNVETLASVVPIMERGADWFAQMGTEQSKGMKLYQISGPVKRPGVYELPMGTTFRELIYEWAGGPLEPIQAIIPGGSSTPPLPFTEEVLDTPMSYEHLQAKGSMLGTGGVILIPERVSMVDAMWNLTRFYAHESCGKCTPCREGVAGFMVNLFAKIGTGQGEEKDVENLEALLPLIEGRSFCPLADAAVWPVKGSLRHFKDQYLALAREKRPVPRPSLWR
T3 sequence (Q56221 2-181 partner): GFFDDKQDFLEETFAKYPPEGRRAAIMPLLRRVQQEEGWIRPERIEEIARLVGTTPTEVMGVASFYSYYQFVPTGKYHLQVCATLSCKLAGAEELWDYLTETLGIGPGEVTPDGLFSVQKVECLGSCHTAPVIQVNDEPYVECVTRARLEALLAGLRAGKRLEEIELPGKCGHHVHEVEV
T3 sequence (Q56223 1-783 partner): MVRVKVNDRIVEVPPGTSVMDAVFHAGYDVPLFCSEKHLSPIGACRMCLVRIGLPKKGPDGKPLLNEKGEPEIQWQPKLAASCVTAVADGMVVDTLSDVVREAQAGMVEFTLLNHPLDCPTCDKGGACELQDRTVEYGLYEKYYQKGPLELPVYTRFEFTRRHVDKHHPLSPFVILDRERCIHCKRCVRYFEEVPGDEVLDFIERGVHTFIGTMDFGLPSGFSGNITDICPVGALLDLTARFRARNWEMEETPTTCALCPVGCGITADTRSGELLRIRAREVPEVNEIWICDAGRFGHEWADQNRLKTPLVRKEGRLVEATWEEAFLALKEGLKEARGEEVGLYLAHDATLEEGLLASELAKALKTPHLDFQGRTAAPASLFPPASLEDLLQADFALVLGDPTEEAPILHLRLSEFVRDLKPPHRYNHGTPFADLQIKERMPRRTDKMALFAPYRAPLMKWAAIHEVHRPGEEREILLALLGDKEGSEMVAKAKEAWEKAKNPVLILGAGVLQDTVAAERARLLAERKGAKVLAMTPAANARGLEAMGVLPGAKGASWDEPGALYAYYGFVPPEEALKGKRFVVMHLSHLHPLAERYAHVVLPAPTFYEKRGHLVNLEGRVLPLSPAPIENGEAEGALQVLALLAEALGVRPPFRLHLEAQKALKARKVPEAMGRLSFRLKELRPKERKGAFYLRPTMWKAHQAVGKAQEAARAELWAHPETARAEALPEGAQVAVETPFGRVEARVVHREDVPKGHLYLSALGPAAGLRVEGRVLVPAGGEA

[7] = substrate: NC(=O)C1=CN([C@@H]2O[C@H](COP(=O)(O)OP(=O)(O)OC[C@H]3O[C@@H](n4cnc5c(N)ncnc54)[C@H](O)[C@@H]3O)[C@@H](O)[C@H]2O)C=CC1; experiment: purified protein; type: biochemical, Escherichia coli; settings: reaction started by enzyme (oxidised enzyme), ferricyanide 0.25-2 mM, pH 6.0, 30 °C, ping-pong-pong with double substrate inhibition

NC(=O)C1=CN([C@@H]2O[C@H](COP(=O)(O)OP(=O)(O)OC[C@H]3O[C@@H](n4cnc5c(N)ncnc54)[C@H](O)[C@@H]3O)[C@@H](O)[C@H]2O)C=CC1 [NADH]
Km [1]: 11 µM | Ki, app. ^NADH [2]: 22 µM | Ki, app. ^NADH [3]: 22 µM

NC(=O)c1ccc[n+]([C@@H]2O[C@H](COP(=O)(O)OP(=O)(O)OC[C@H]3O[C@@H](n4cnc5c(N)ncnc54)[C@H](O)[C@@H]3O)[C@@H](O)[C@H]2O)c1 [NAD^+]
Rate constant: NAD^+ dissociation (s^-1) [4]: 2.3 10^3 | Rate constant: NAD^+ dissociation (s^-1) [5]: 2.4 10^3

NC(=O)C1=CN([C@@H]2O[C@H](COP(=O)(O)OP(=O)(O)OC[C@H]3O[C@@H](n4cnc5c(=O)[nH]cnc54)[C@H](O)[C@@H]3O)[C@@H](O)[C@H]2O)C=CC1 [d-NADH]
d-NADH:ferricyanide oxidoreductase activity of cytoplasmic membranes, 340 nm [6]: T. thermophilus membranes exhibited similar fast reaction rates

B1: E. coli respiratory complex I (NADH:ubiquinone oxidoreductase) (Escherichia coli K-12) (protein)
chain: T2 sequence (P31979 1-445)
notes: whole complex from the nuo operon, His-tagged NuoF, overproduced in E. coli, DDM-solubilised, purified by anion exchange, Ni-IDA and Source Q; with NADH-quinone oxidoreductase subunit E; NADH-quinone oxidoreductase subunit G; NADH-quinone oxidoreductase subunit C/D; NADH-quinone oxidoreductase subunit B; NADH-quinone oxidoreductase subunit I; NADH-quinone oxidoreductase subunit A; NADH-quinone …
Km [7]: 11 µM
